# Measured values published in patent US20100216767A1, “QUINAZOLINES FOR PDK1 INHIBITION” (priority 2006, published 2010).
# pIC50: −log10 of the molar value.
# Molecular target: T1, PDK1 kinase (Homo sapiens, UniProt O15530)
# T1 sequence (O15530 1-556): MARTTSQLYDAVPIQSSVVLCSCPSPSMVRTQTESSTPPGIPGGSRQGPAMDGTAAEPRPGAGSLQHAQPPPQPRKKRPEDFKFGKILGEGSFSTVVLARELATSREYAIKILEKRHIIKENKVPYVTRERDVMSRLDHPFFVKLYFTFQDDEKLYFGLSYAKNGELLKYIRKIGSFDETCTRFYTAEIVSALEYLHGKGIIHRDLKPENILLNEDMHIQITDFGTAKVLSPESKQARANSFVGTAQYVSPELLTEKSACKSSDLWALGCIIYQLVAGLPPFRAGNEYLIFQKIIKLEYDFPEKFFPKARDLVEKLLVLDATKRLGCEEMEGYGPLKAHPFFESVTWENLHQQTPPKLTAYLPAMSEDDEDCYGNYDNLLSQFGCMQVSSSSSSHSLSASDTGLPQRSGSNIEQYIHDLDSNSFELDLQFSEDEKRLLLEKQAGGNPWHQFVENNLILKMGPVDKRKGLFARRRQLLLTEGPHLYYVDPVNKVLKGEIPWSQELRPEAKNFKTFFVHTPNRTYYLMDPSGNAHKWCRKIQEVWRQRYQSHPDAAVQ
# Assay: PDK1 Kinase Alpha Screen Assay
# Assay type: biochemical
# Conditions: Table 1; 10 μM ATP, 50 nM PDK1-4 peptide
# Summary of the method: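 PDK1 phosphorylation of 50 nM biotinylated PDK1-4 peptide with 10 μM ATP in 50 mM Tris pH 7.5, 10 mM MgCl2, 0.1% BSA, 0.01% Tween-20, 2 mM DTT, 2.5% DMSO, 3-18 h. Stopped with EDTA; phosphopeptide detected by AlphaScreen using phospho-(Ser/Thr) PKA substrate antibody on protein A acceptor and streptavidin donor beads, overnight at room temperature.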
row,pIC50,SMILES
1,> 5.30,"CC(=O)Nc1cc(CN(C)C)cc(Nc2ncc3cc(Br)ccc3n2)c1 [Example 147, N-(3-(6-bromoquinazolin-2-ylamino)-5-((dimethyl-amino)methyl)phenyl)-acetamide]"
2,> 5.30,"COc1ccc2nc(Nc3ccc(C(N)=O)cc3)ncc2c1 [Example 36, 4-(6-methoxyquinazolin-2-ylamino)benzamide]"
3,> 5.30,"CC(=O)Nc1cc(CN(C)C)cc(Nc2ncc3cc(Br)cc(F)c3n2)c1 [Example 135, N-(3-(6-Bromo-8-fluoroquinazolin-2-ylamino)-5-((dimethylamino)-methyl)phenyl)acetamide]"
4,5.00 to 5.30,"C#Cc1cc2cnc(Nc3cc(OC)cc(-n4nnnc4C)c3)nc2cc1OC [Example 172, 6-ethynyl-7-methoxy-N-(3-methoxy-5-(5-methyl-1H-tetrazol-1-yl)phenyl)-quinazolin-2-amine]"
5,> 5.30,"Brc1ccc2nc(Nc3cc(CN4CCOCC4)cc(-c4nnn[nH]4)c3)ncc2c1 [Example 144, 6-bromo-N-(3-(morpholinomethyl)-5-(1H-tetrazol-5-yl)phenyl)-quinazolin-2-amine]"
6,> 5.30,"C#Cc1ccc2nc(Nc3cccc(C(N)=O)c3)ncc2c1 [Example 59, 3-(6-ethynylquinazolin-2-ylamino)benzamide]"
7,> 5.30,"CC(=O)Nc1cc(Nc2ncc3cc(Br)ccc3n2)cc(-c2cccnc2)c1 [Example 32, N-(3-(6-Bromoquinazolin-2-ylamino)-5-(pyridine-3-yl)phenyl)acetamide]"
8,> 5.30,"COc1cc(-c2cnn(C)c2)cc2cnc(Nc3ccc(S(N)(=O)=O)cc3)nc12 [Example 62, 4-(8-methoxy-6-(1-methyl-1H-pyrazol-4-yl)-quinazolin-2-ylamino)-benzenesulfonamide]"
9,> 5.30,"C#Cc1cc(OC)c2nc(Nc3cc(CN(C)C)cc(NC(C)=O)c3)ncc2c1Cl [Example 88, N-(3-(5-chloro-6-ethynyl-8-methoxyquinazolin-2-ylamino)-5-((dimethyl-amino)methyl)phenyl)-acetamide]"
10,> 5.30,"COc1cc(Br)c(Cl)c2cnc(Nc3ccc(N4CCOCC4)cc3)nc12 [Example 116, 6-bromo-5-chloro-8-methoxy-N-(4-morpholinophenyl)-quinazolin-2-amine]"
11,> 5.30,"COc1cc(-c2nccs2)c(-c2nccs2)c2cnc(Nc3ccc(N4CCOCC4)cc3)nc12 [Example 169, 8-methoxy-N-(4-morpholinophenyl)-5,6-di(thiazol-2-yl)quinazolin-2-amine]"
12,> 5.30,"COc1cc2nc(Nc3cc(CN4CCOCC4)cc(NC(C)=O)c3)ncc2cc1-c1nccs1 [Example 140, N-(3-(7-methoxy-6-(thiazol-2-yl)quinazolin-2-ylamino)-5-(morpholino-methyl)phenyl)-acetamide]"
13,> 5.30,"C#Cc1ccc2nc(Nc3ccc(N4CCOCC4)cc3)ncc2c1F [Example 24, 6-Ethynyl-5-fluoro-N-(4-morpholinophenyl)quinazolin-2-amine]"
14,> 5.30,"C#Cc1cc(OC)c2nc(Nc3cc(CN(C)C)cc(NC(C)=O)c3)ncc2c1 [Example 86, N-(3-((dimethylamino)-methyl)-5-(6-ethynyl-8-methoxyquinazolin-2-ylamino)phenyl)acetamide]"
15,> 5.30,"C#Cc1ccc2nc(Nc3ccc(N4CCOCC4)cc3)ncc2c1 [Example 57, 6-ethynyl-N-(4-morpholinophenyl)-quinazolin-2-amine]"
16,> 5.30,"C#Cc1cc(OC)c2nc(Nc3ccc(C(=O)NC(C)C)cc3)ncc2c1Cl [Example 114, 4-(5-chloro-6-ethynyl-8-methoxyquinazolin-2-ylamino)-N-isopropyl-benzamide]"
17,> 5.30,"N#Cc1ccc2nc(Nc3ccc(N4CCOCC4)cc3)ncc2c1 [Example 76, 2-(4-morpholinophenyl-amino)quinazoline-6-carbonitrile]"

row,pIC50,SMILES
1,> 5.30,"NC(=O)c1ccc2nc(Nc3ccc(S(N)(=O)=O)cc3)ncc2c1 [Example 42, 2-(4-sulfamoylphenyl-amino)quinazoline-6-carboxamide]"
2,> 5.30,"COc1cc(C#CC(C)(C)O)cc2cnc(Nc3ccc(S(N)(=O)=O)cc3)nc12 [Example 65, 4-(6-(3-hydroxy-3-methylbut-1-ynyl)-8-methoxyquinazolin-2-ylamino)benzenesulfonamide]"
3,> 5.30,"NS(=O)(=O)c1ccc(Nc2ncc3cc(-c4cccnc4F)ccc3n2)cc1 [Example 44, 4-(6-(2-fluoropyridin-3-yl)quinazolin-2-ylamino)-benzenesulfonamide]"
4,> 5.30,"CC(=O)Nc1cc(CN2CCOCC2)cc(Nc2ncc3cc(Br)cc(Cl)c3n2)c1 [Example 128, N-(3-(6-bromo-8-chloro-quinazolin-2-ylamino)-5-(morpholinomethyl)-phenyl)-acetamide]"
5,> 5.30,"C#Cc1ccc2nc(Nc3cccc(CN(C)C)c3)ncc2c1 [Example 71, N-(3-((dimethylamino)-methyl)phenyl)-6-ethynylquinazolin-2-amine]"
6,> 5.30,"C#Cc1ccc2nc(Nc3cc(CN4CCOCC4)cc(NC(C)=O)c3)ncc2c1 [Example 125, N-(3-(6-ethynylquinazolin-2-ylamino)-5-(morpholino-methyl)phenyl)acetamide]"
7,> 5.30,"COc1cc2cnc(Nc3cc(CN4CCOCC4)cc(NC(C)=O)c3)nc2cc1OC [Example 174, N-(3-(6,7-dimethoxy-quinazolin-2-ylamino)-5-(morpholinomethyl)-phenyl)acetamide]"
8,> 5.30,"C#Cc1ccc2nc(Nc3cc(C#N)cc(CN4CCOCC4)c3)ncc2c1 [Example 152, 3-(6-ethynylquinazolin-2-ylamino)-5-(morpholino-methyl)benzonitrile]"
9,> 5.30,"C#Cc1cc(OC)c2nc(Nc3ccc(S(N)(=O)=O)cc3)ncc2c1 [Example 2, 4-(6-Ethynyl-8-methoxyquinazolin-2-ylamino)benzenesulfonamide]"
10,5.00 to 5.30,"NC(=O)c1cc(Nc2ncc3cc(Br)ccc3n2)ccc1N1CCOCC1 [Example 123, 5-(6-bromoquinazolin-2-ylamino)-2-morpholino-benzamide]"
11,> 5.30,"C#Cc1ccc2nc(Nc3cc(CN4CCNCC4)cc(NC(C)=O)c3)ncc2c1 [Example 141, N-(3-(6-ethynylquinazolin-2-ylamino)-5-(piperazin-1-ylmethyl)phenyl)acetamide]"
12,> 5.30,"C#Cc1ccc2nc(Nc3ccc(N4CCOCC4)c(CN(C)C)c3)ncc2c1 [Example 82, N-(3-((dimethylamino)-methyl)-4-morpholino-phenyl)-6-ethynyl-quinazolin-2-amine]"
13,> 5.30,"C#Cc1cc2cnc(Nc3ccc(C(=O)NC(C)C)cc3)nc2cc1OC [Example 73, 4-(6-ethynyl-7-methoxy-quinazolin-2-ylamino)-N-isopropylbenzamide]"
14,> 5.30,"COc1cc(C)cc2cnc(Nc3ccc(S(N)(=O)=O)cc3)nc12 [Example 5, 4-(8-Methoxy-6-methylquinazolin-2-ylamino)benzenesulfonamide]"
15,> 5.30,"CC(=O)Nc1cc(CN(C)C)cc(Nc2ncc3cc(-c4cncnc4)ccc3n2)c1 [Example 92, N-(3-((dimethylamino)-methyl)-5-(6-(pyrimidin-5-yl)quinazolin-2-ylamino)-phenyl)acetamide]"
16,> 5.30,"C#Cc1ccc2nc(Nc3cc(OC)cc(-n4nnnc4C)c3)ncc2c1 [Example 156, 6-ethynyl-N-(3-methoxy-5-(5-methyl-1H-tetrazol-1-yl)phenyl)quinazolin-2-amine]"
